Species: Homo sapiens
Experiment: In vitro inhibition of ADP-induced aggregation of human platelets
Format: functional

| SMILES | IC50 |
| --- | --- |
| O=C(O)COc1cccc(/C=C/c2nc(-c3ccccc3)c(-c3ccccc3)o2)c1 | 13 µM |
| O=C(O)COc1cccc(CC(c2ccsc2)c2nc(-c3ccccc3)c(-c3ccccc3)o2)c1 (stereo unspecified) | 20.7 µM |
| CC(C)(C)C(Cc1cccc(OCC(=O)O)c1)c1nc(-c2ccccc2)c(-c2ccccc2)o1 (stereo unspecified) | 3.66 µM |
| CSC(Cc1cccc(OCC(=O)O)c1)c1nc(-c2ccccc2)c(-c2ccccc2)o1 (stereo unspecified) | 1.3 µM |
| CC(C)C(Cc1cccc(OCC(=O)O)c1)c1nc(-c2ccccc2)c(-c2ccccc2)o1 (stereo unspecified) | 0.97 µM |
| O=C(O)COc1cccc(CC(C(=O)O)c2nc(-c3ccccc3)c(-c3ccccc3)o2)c1 (stereo unspecified) | 14 µM |
| O=C(O)COc1cccc(CC(CCO)c2nc(-c3ccccc3)c(-c3ccccc3)o2)c1 (stereo unspecified) | 2.92 µM |
| C=CCC(Cc1cccc(OCC(=O)O)c1)c1nc(-c2ccccc2)c(-c2ccccc2)o1 (stereo unspecified) | 0.57 µM |
| CCOC(=O)/C(=C\c1cccc(OCC(=O)OC(C)(C)C)c1)c1nc(-c2ccccc2)c(-c2ccccc2)o1 | > 60 µM |
| CN(C)C(=O)C(=Cc1cccc(OCC(=O)O)c1)c1nc(-c2ccccc2)c(-c2ccccc2)o1 | 12.2 µM |
| O=C(O)COc1cccc(/C=C\c2nc(-c3ccccc3)c(-c3ccccc3)o2)c1 | 0.18 µM |
| CN(C)C(=O)C(Cc1cccc(OCC(=O)O)c1)c1nc(-c2ccccc2)c(-c2ccccc2)o1 (stereo unspecified) | 3.56 µM |
| CCOC(=O)C(=Cc1cccc(OCC(=O)OC)c1)c1nc(-c2ccccc2)c(-c2ccccc2)o1 [listing 1 of 2 here] | 19.7 µM |
| C[S+]([O-])C(Cc1cccc(OCC(=O)O)c1)c1nc(-c2ccccc2)c(-c2ccccc2)o1 (stereo unspecified) | 7.08 µM |
| O=C(O)COc1cccc(CC(CO)c2nc(-c3ccccc3)c(-c3ccccc3)o2)c1 (stereo unspecified) | 9.31 µM |
| O=C(O)COc1cccc(/C=C(\C(=O)O)c2nc(-c3ccccc3)c(-c3ccccc3)o2)c1 | 20.3 µM |
| CCOC(=O)C(=Cc1cccc(OCC(=O)OC)c1)c1nc(-c2ccccc2)c(-c2ccccc2)o1 [listing 2 of 2 here] | 2 µM |
| CC#CCC(C)[C@H](O)/C=C/[C@@H]1[C@H]2C/C(=C/CCCC(=O)O)C[C@H]2C[C@H]1O (stereo partly specified) [ILOPROST] | 0.002 µM |

Further compounds by falling IC50, results first:

| IC50 | SMILES |
| --- | --- |
| 33.2 µM | O=C(O)COc1cccc(CC(c2nc(-c3ccccc3)c(-c3ccccc3)o2)c2cccs2)c1 (stereo unspecified) |
| 23.2 µM | O=C(O)COc1cccc(CC(c2ccccc2)c2nc(-c3ccccc3)c(-c3ccccc3)o2)c1 (stereo unspecified) |
| 15 µM | CNC(=O)/C(=C\c1cccc(OCC(=O)O)c1)c1nc(-c2ccccc2)c(-c2ccccc2)o1 |
| 7.96 µM | CS(=O)(=O)C(Cc1cccc(OCC(=O)O)c1)c1nc(-c2ccccc2)c(-c2ccccc2)o1 (stereo unspecified) |
| 7.68 µM | C=CCC(Cc1cccc(OCC(=O)O)c1)(C(=O)OCC)c1nc(-c2ccccc2)c(-c2ccccc2)o1 (stereo unspecified) |
| 4.68 µM | O=C(O)COc1cccc(CC(CCCCO)c2nc(-c3ccccc3)c(-c3ccccc3)o2)c1 (stereo unspecified) |
| 3.75 µM | NC(=O)C(Cc1cccc(OCC(=O)O)c1)c1nc(-c2ccccc2)c(-c2ccccc2)o1 (stereo unspecified) |
| 1.7 µM | O=C(O)COc1cccc(CC(CCCO)c2nc(-c3ccccc3)c(-c3ccccc3)o2)c1 (stereo unspecified) |
| 1.22 µM | CC(C)OC(=O)C(Cc1cccc(OCC(=O)O)c1)c1nc(-c2ccccc2)c(-c2ccccc2)o1 (stereo unspecified) |
| 1.18 µM | CCOC(=O)C(Cc1cccc(OCC(=O)O)c1OC)c1nc(-c2ccccc2)c(-c2ccccc2)o1 (stereo unspecified) |
| 0.9 µM | CCOP(=O)(OCC)C(Cc1cccc(OCC(=O)O)c1)c1nc(-c2ccccc2)c(-c2ccccc2)o1 (stereo unspecified) |
| 0.69 µM | CNC(=O)C(Cc1cccc(OCC(=O)O)c1)c1nc(-c2ccccc2)c(-c2ccccc2)o1 (stereo unspecified) |
| 0.44 µM | N#CC(Cc1cccc(OCC(=O)O)c1)c1nc(-c2ccccc2)c(-c2ccccc2)o1 (stereo unspecified) |
| 0.36 µM | CCOC(=O)/C(=C\c1cccc(OCC(=O)O)c1)c1nc(-c2ccccc2)c(-c2ccccc2)o1 |
| 0.25 µM | N#C/C(=C\c1cccc(OCC(=O)O)c1)c1nc(-c2ccccc2)c(-c2ccccc2)o1 |
| 0.13 µM | CCOC(=O)/C(=C\c1cccc(OCC(=O)O)c1OC)c1nc(-c2ccccc2)c(-c2ccccc2)o1 |
| 0.12 µM | CCOC(=O)C(Cc1cccc(OCC(=O)O)c1)c1nc(-c2ccccc2)c(-c2ccccc2)o1 (stereo unspecified) |
| 0.08 µM | COC(=O)C(Cc1cccc(OCC(=O)O)c1)c1nc(-c2ccccc2)c(-c2ccccc2)o1 (stereo unspecified) |

— ChEMBL document CHEMBL1126925, “Nonprostanoid prostacyclin mimetics. 4. Derivatives of 2-[3-[2-(4,5-diphenyl-2-oxazolyl)ethyl]phenoxy]acetic acid substituted alpha to the oxazole ring” (J Med Chem, 1993)
